Assay results as given in patent US20130136794A1, “HETEROARYL (ALKYL) DITHIOCARBAMATE COMPOUNDS, PREPARATION METHODS AND USES THEREOF” (PEKING UNIVERSITY, priority 2010, published 2013).
Read-outs that look alike come from different tables or passages of the source.

Assays:
[1] = test system: HCT 116 (cell line of low-expression of both EGFR and erbB2); assay: MTT assay on control cell line with low EGFR and erbB2 expression (72 h); assay type: cell-based; conditions: Homo sapiens, read-out: HCT 116 (μM), EC50
Procedure: (§1) Experimental operations: Human breast cancer SK-BR-3, MDA-MB-468 cells and human colon cancer HCT 116 cells were cultured in vitro. The cells were collected after growth to logarithmic phase, and centrifugated at 1000 rpm for 5 min. The supernatant was discarded, and the cells were suspended with an appropriate amount of medium. The cell concentration was adjusted to 3.5×10^3/mL. Then the cells were seeded into 96-well culture plates in 100 μL per well, and placed in an incubator (37° C., 5% CO2) to be incubated for 24 h. The testing drugs were added, and the negative control group was added DMSO with the final concentration of 5%. Each group has three parallel wells. After being incubated in the incubator for 72 h, 20 μL of 5 mg/mL MTT was added into each well, and the plate was placed at 37° C. for 4 h. 200 μL of DMSO was added into each well, and then the plate was oscillated in an oscillator for 30 min. […] The EC50 values were calculated by using Prism Graphpad statistical software.

[2] = test system: MDA-MB-468 (cell line of EGFR over-expression); assay: MTT assay on EGFR over-expressing cell line (72 h); assay type: cell-based; conditions: Homo sapiens, read-out: MDA-MB-468 (μM), EC50
Procedure: as §1

[3] = test system: SK-BR-3 (cell line of erbB2 over-expression); assay: MTT assay on erbB2 over-expressing cell line (72 h); assay type: cell-based; conditions: Homo sapiens, read-out: SK-BR-3 (μM), EC50
Procedure: as §1

Bel-7402 cells = assay: EC50 on proliferation of Bel7402 cells (SRB, 48 h); assay type: cell-based; conditions: Homo sapiens, read-out: Bel7402 EC50 (nmol)
Procedure: (§2) EC50 values of the compounds according to the present invention on the proliferation of human leukaemia HL-60 cells and Bel-7402 cells were determined by using the following method, and the results are shown in Table 2.
Testing method for ED50 values on the human Be17402ce11: After the cells were incubated with the addition of the drugs for 48 h, the plates were taken out. 50 μL of pre-cooled 500 g/L trichloroacetic acid was added into each well. The plates were kept in 4° C. refrigerator for 1 h after standing for 5 min, taken out, washed with deionized water for 5 times, and dried in the air. After the plates were completely dried, 100 μL of 0.4% SRB (formulated in 1% acetic acid) was added into each well. Following staining for 20 min, the staining solution was discarded, and the residue was washed with 1% acetic acid for 5 times to remove the uncombined dye. After being dried in the air, the residue was dissolved in 150 μL of 10 mmol/L unbuffered
Tris basic solution (pH=10.5), and oscillated in an oscillator for 5 min. The absorbance of each well at 490 nm was measured with TECAN enzyme mark instrument. The cells in background control plates were treated in the same way for measuring OD490. The EC50 values were calculated by using Prism Graphpad statistical software.

[4] = test system: human leukaemia HL-60 cells; assay: EC50 on proliferation of HL-60 cells (MTT, 48 h); assay type: cell-based; conditions: read-out: HL-60 EC50 (nmol)
Procedure: as §2
Testing method for EC50 values on the human leukaemia HL-60 cells: The human leukaemia HL-60 cells were cultured in vitro. The cells were collected after growth to logarithmic phase, and centrifugated at 1000 rpm for 5 min. The supernatant was discarded and the cells were suspended in an appropriate amount of medium. The cell concentration was adjusted to 1.2×10^4/mL. The cells were seeded into 96-well culture plates in 90 μL per well. For each well of the drug treatment groups, 10 μL of medium-diluted drug was added, whereas for the blank control groups, the same amount of medium was added. Every testing drug was set up for three parallel wells, and also three control wells with only testing drugs (without cell) were set up. Negative control groups were medium containing 0.5% DMSO. After the plate was incubated in an incubator for 48 h, 10 μL of 5 mg/mL MTT was added into each well, and then the plate was placed for 3 h at 37° C. 100 μL of ternary solution (5% SDS, 10 mM HCl, 5% isopropanol) was added into each well, and the plate was kept at 37° C. overnight. The absorbance (OD) was measured at 595 nm/620 nm. The EC50 values were calculated by using Prism Graphpad statistical software.

[5] = test system: KB human nasopharyngeal cancer; assay: Inhibition of tumor cell proliferation at 10 μM, Model D: SRB method; assay type: cell-based; conditions: read-out: Model D Inhibitory rate (%)
From the text: (§3) The evaluation of the compounds according to the present invention on the inhibition rate of the proliferation of four different tumor cells, using the routine method for anti-tumor activity tests in the pharmaceutical filed, for example the method described in the following literature: (J. Immuno/Method, 1983, 65, 55).

HL-60 human leukaemia = assay: Inhibition of tumor cell proliferation at 10 μM, Model A: MTT method; assay type: cell-based; conditions: HL-60, MTT method, read-out: Model A Inhibitory rate (%)
From the text: as §3

[6] = test system: BGC-823 human gastric cancer; assay: Inhibition of tumor cell proliferation at 10 μM, Model B: SRB method; assay type: cell-based; conditions: BGC-823, SRB method, read-out: Model B Inhibitory rate (%)
From the text: as §3

[7] = test system: Bel-7402 human liver cancer; assay: Inhibition of tumor cell proliferation at 10 μM, Model C: SRB method; assay type: cell-based; conditions: Bel-7402, SRB method, read-out: Model C Inhibitory rate (%)
From the text: as §3

SMILES	EC50 ([1]; HCT 116 cells, MTT, 72 h)	EC50 ([2]; MDA-MB-468 cells, MTT, 72 h)	EC50 ([3]; SK-BR-3 cells, MTT, 72 h)	EC50 (Bel-7402 cells)	EC50 [4]	inhibition at 10 µM [5]	melting point	inhibition at 10 µM (HL-60 human leukaemia)	inhibition at 10 µM [6]	inhibition at 10 µM [7]	EC50 ([1]; HCT-116, 72 h)	EC50 ([2]; MDA-MB-468, 72 h)	EC50 ([3]; SK-BR-3, 72 h)
CCCCOC(=O)CCSC(=S)NCc1cccnc1 [Compound 47, 2-(butoxycarbonyl)ethyl (pyridin-3-ylmethyl)dithiocarbamate]	7.83 µM	12.8 µM	4.46 µM	0.00636 µM	0.0254 µM								
OC1CCSC(=S)N1Cc1ccco1 (stereo not shown) [Compound 1, 3-(furan-2-ylmethyl)-4-hydroxy-1,3-thiazinane-2-thione]						20.1%	42 to 43 °C	28.4%	20%	43.1%			
OC1CCSC(=S)N1Cc1cccnc1 (stereo not shown) [Compound 9, 4-hydroxy-3-(pyridin-3-ylmethyl)-1,3-thiazinane-2-thione]						61.3%	56 to 57 °C	38.9%	20.3%	79.5%			
OB(O)CCSC(=S)NCc1cccnc1 [Compound 14, 2-boronoethyl(pyridin-3-ylmethyl)dithiocarbamate]						94.5%	49 to 50 °C	41.4%	68.6%	91%			
CS(=O)(=O)CCNCc1ccc(-c2ccc3ncnc(Nc4ccc(OCc5cccc(F)c5)c(Cl)c4)c3c2)o1 [Lapatinib, reference compound]											42.4 µM	19.6 µM	4.35 µM
OB(O)CCSC(=S)NCc1ccco1 [Compound 6, 2-boronoethyl(furan-2-ylmethyl)dithiocarbamate]						1.68%		0.06%	14.5%	2.9%			
C[S+]([O-])CCSC(=S)NCc1ccco1 (stereo not shown) [Compound 7, 2-(methylsulfinyl)ethyl(furan-2-ylmethyl)dithiocarbamate]						4.07%	43 to 45 °C	11.2%	16%	-8.68%			
COC(=O)CCSC(=S)NCc1ccco1 [Compound 2, 2-(methoxycarbonyl)ethyl(furan-2-ylmethyl)dithiocarbamate]						3.8%	50 to 52 °C	19.3%	16.4%	-1.69%			
CC1=CSC(=S)N(Cc2cccnc2)C1(C)O (stereo not shown) [Compound 12, 4-hydroxy-4,5-dimethyl-3-(pyridin-3-ylmethyl)-3,4-dihydro-2H-1,3-thiazine-2-thione]						15.2%	71 to 72 °C	79.9%	43.9%	8.66%			
[O-][S+](CCSC(=S)NCc1ccco1)Cc1ccccc1 (stereo not shown) [Compound 8, 2-(benzylsulfinyl)ethyl(furan-2-ylmethyl)dithiocarbamate]						10.5%	51 to 52 °C	20.9%	12.3%	56.9%			
CC1=CSC(=S)N(Cc2ccco2)C1(C)O (stereo not shown) [Compound 4, 3-(furan-2-ylmethyl)-4-hydroxy-4,5-dimethyl-3,4-dihydro-2H-1,3-thiazine-2-thione]						5.76%	88 to 89 °C	23.7%	15.2%	2.91%			
N#CCCSC(=S)NCc1cccnc1 [Compound 11, 2-cyanoethyl(pyridin-3-ylmethyl)dithiocarbamate]	10.4 µM	9.54 µM	2.84 µM	0.0272 µM	0.00146 µM	93.7%	58 to 60 °C	72.3%	60.4%	86.1%			
[O-][S+](CCSC(=S)NCc1cccnc1)Cc1ccccc1 (stereo not shown) [Compound 16, 2-(benzylsulfinyl)ethyl(pyridin-3-ylmethyl)dithiocarbamate]	16.2 µM	0.953 µM	0.655 µM			93.1%		26.1%	72.3%	96.1%			
COC(=O)CCSC(=S)NCc1cccnc1 [Compound 10, 2-(methoxycarbonyl)ethyl(pyridin-3-ylmethyl)dithiocarbamate]						91.5%		61.9%	72%	87.5%			
